System: adults with recurrence of glioblastoma multiforme (GBM)
Assay: Phase 2 open-label study of IV AR-67 (7.5 mg/m2 once daily for 5 days, 21-day cycle) in recurrent GBM: tumor response (MRI, MacDonald criteria), PFS, disposition. Cohort 1 = not received or not recently failed (>90 days) bevacizumab; Cohort 2 = recently (<90 days) failed bevacizumab
Assay type: in vivo, human
Method: The primary objective in the rapid bevacizumab failure group (<90 days) was to determine the 2-month PFS.
This solution was reconstituted in dextrose 5% in water to a final concentration between 0.06-0.6 mg/mL Drug (7.5 mg/m2) was to be given until the onset of toxicity requiring discontinuation or tumor progression. Tumor response was assessed=14d after every second cycle and before every third cycle using MRI.

SMILES: CC[C@@]1(O)C(=O)OCc2c1cc1n(c2=O)Cc2c-1nc1ccc(O)cc1c2[Si](C)(C)C(C)(C)C [AR-67, (205)-7-tert-butyldimethysilyl-10-hydroxycamptothecin]
- Best Overall Response: Complete Response, patients (All Patients, N = 46): 0
- Best Overall Response: Progressive Disease, patients (All Patients, N = 46): 31
- Response at Study Completion or Discontinuation: Complete Response, patients (All Patients, N = 46): 0
- Response at Study Completion or Discontinuation: Progressive Disease, patients (All Patients, N = 46): 39
- Response at Study Completion or Discontinuation: Stable Disease, patients (All Patients, N = 46): 2
- Withdrawal due to Adverse event, patients (%) (All Patients, N = 46): 2.2%
- Withdrawal due to Death, patients (%) (All Patients, N = 46): 6.5%
- Withdrawal due to Disease progression, patients (%) (All Patients, N = 46): 69.6%
- Best Overall Response: Complete Response, patients (Cohort 1, N = 31): 0
- Best Overall Response: Partial Response, patients (Cohort 1, N = 31): 3
- Best Overall Response: Progressive Disease, patients (Cohort 1, N = 31): 20
- Best Overall Response: Stable Disease, patients (Cohort 1, N = 31): 5
- Response at Study Completion or Discontinuation: Complete Response, patients (Cohort 1, N = 31): 0
- Response at Study Completion or Discontinuation: Partial Response, patients (Cohort 1, N = 31): 1
- Response at Study Completion or Discontinuation: Progressive Disease, patients (Cohort 1, N = 31): 28
- Response at Study Completion or Discontinuation: Stable Disease, patients (Cohort 1, N = 31): 0
- Withdrawal due to Death, patients (%) (Cohort 1, N = 31): 6.5%
- Withdrawal due to Disease progression, patients (%) (Cohort 1, N = 31): 77.4%
- Best Overall Response: Complete Response, patients (Cohort 2, N = 13): 0
- Best Overall Response: Partial Response, patients (Cohort 2, N = 13): 0
- Best Overall Response: Progressive Disease, patients (Cohort 2, N = 13): 10
- Response at Study Completion or Discontinuation: Complete Response, patients (Cohort 2, N = 13): 0
- Response at Study Completion or Discontinuation: Partial Response, patients (Cohort 2, N = 13): 0
- Response at Study Completion or Discontinuation: Progressive Disease, patients (Cohort 2, N = 13): 10
- Response at Study Completion or Discontinuation: Stable Disease, patients (Cohort 2, N = 13): 2
- Withdrawal due to Adverse event, patients (%) (Cohort 2, N = 13): 7.7%
- Withdrawal due to Death, patients (%) (Cohort 2, N = 13): 7.7%
- Withdrawal due to Disease progression, patients (%) (Cohort 2, N = 13): 53.8%
- efficacy, reason for study termination (in vivo): lack of efficacy
- outcome (rGBM patients who failed bevacizumab within 90 days of last dose): fared poorly
- patients who surpassed the PFS6 endpoint (rGBM patients who had never taken bevacizumab, or had not failed bev treatment within 90 days of last dose): 20%

— patent US20220395497A1, “Cancer Treatment Using Camptothecin Derivatives” (priority 2019, published 2022)
